Measured values taken from patent publication US20140105948A1, “STABILITY OF PEROXIDE IN ORAL CARE COMPOSTIONS” (INTERCONTINENTAL GREAT BRANDS LLC, priority 2011, published 2014).
Where a name gives a salt, the structure may show the parent alone. Residues, ends and D or L forms follow the SMILES beside them.

What was measured:
[1] = Stability of carbamide peroxide stored with sweeteners; format: physicochemical; settings: for % Carbamide Peroxide recovered after 4 weeks of aging with sweetener at 25 C.: carbamide peroxide stored with sweetener, four weeks; for tendency of sweetener to react with the peroxide: result in words
Method: The present inventors have compared the action of certain sweeteners on the effect with carbamide peroxide, with surprising results. Carbamide peroxide was stored with three sweeteners, and stored for four weeks at 25° C. to determine stability. The three sweeteners included aspartame, acesulfame potassium and sucralose. The percentage of carbamide peroxide recovered after four weeks was measured.

[2] = Shelf life stability of encapsulated carbamide peroxide in chewing gum (Example 1); format: physicochemical; settings: without encapsulation, after two weeks of storage
Method: The stability of various encapsulants for carbamide peroxide in chewing gum was measured. As explained above, peroxides in general are known to be problematic in the shelf life of chewing gums, as they have a tendency to break down gum base, rendering it ineffective and useless. Chewing gums including various encapsulated carbamide peroxides were prepared and were stored for eight weeks at room temperature and at 37° C. Solid carbamide peroxide was encapsulated in the following encapsulating materials: (1) ethyl cellulose (25% encapsulant weight); (2) polyvinyl acetate B30 (30% encapsulant weight); (3) gum arabic (30% encapsulant weight); (4) mannitol (30% encapsulant weight); and (5) shellac (30% encapsulant weight). These encapsulated particles were used in formulating pieces of chewing gum and were measured for shelf life stability. In addition, a control chewing gum was prepared, which included non-encapsulated (“free”) carbamide peroxide within the gum base. The amount of carbamide peroxide obtained after the study was measured. […] At room temperature after eight weeks, chewing gums including this encapsulated carbamide peroxide had approximately 95% of the carbamide peroxide remaining. Even after eight weeks at elevated temperatures, these products had approximately 80% of the carbamide peroxide remaining.

Row | Compound | % Carbamide Peroxide recovered after 4 weeks of aging with sweetener at 25 C. [1] [%] | tendency of sweetener to react with the peroxide [1] | % Carbamide Peroxide recovered after 4 weeks of aging with sweetener at 25 C. ([1]; listed as aspartame) | carbamide peroxide decomposed in chewing gum product [2]
1 | NC(N)=O.OO [carbamide peroxide] |  |  |  | nearly all of the carbamide peroxide is decomposed
2 | COC(=O)[C@H](Cc1ccccc1)NC(=O)[C@@H](N)CC(=O)O [Aspartame, L-aspartyl-L-phenylalanine methyl ester] (H-Asp-Phe-OMe) | 78 | have a tendency to react with the peroxide | significant reduction | 
3 | OCC(O)CO [glycerin] |  | have a tendency to react with the peroxide |  | 
4 | CC1=CC(=O)NS(=O)(=O)O1 [Ace-K, potassium salt of 3,4-dihydro-6-methyl-1,2,3-oxathiazine-4-one-2,2-dioxide] | 92 |  |  | 

The next lines start with results.

Row | % Carbamide Peroxide recovered after 4 weeks of aging with sweetener at 25 C. [1] [%] | tendency of sweetener to react with the peroxide [1] | % Carbamide Peroxide recovered after 4 weeks of aging with sweetener at 25 C. ([1]; listed as aspartame) | Compound | carbamide peroxide decomposed in chewing gum product [2]
5 | 100 | do not react with the peroxide |  | OC[C@H]1O[C@H](O[C@]2(CCl)O[C@H](CCl)[C@@H](O)[C@@H]2O)[C@H](O)[C@@H](O)[C@H]1Cl [Sucralose] | 
6 |  | do not react with the peroxide |  | OC[C@@H](O)[C@@H](O[C@H]1O[C@H](CO)[C@@H](O)[C@H](O)[C@H]1O)[C@H](O)[C@@H](O)CO [maltitol] | 
7 |  | do not react with the peroxide |  | isomalt | 
